From PubChem BioAssay (NCI)
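At the GI50, growth is halved. At the TGI there is no net growth.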

Columns and labels:
Test in all cases: NCI-60 cell line screen, 384-well format
DU-145 prostate = test system: DU-145 prostate
K-562 leukemia = test system: K-562 leukemia
UACC-257 melanoma = test system: UACC-257 melanoma
OVCAR-5 ovarian = test system: OVCAR-5 ovarian
LOX IMVI melanoma = test system: LOX IMVI melanoma
MOLT-4 leukemia = test system: MOLT-4 leukemia
786-0 renal = test system: 786-0 renal
HCT-116 colon = test system: HCT-116 colon
MDA-MB-468 breast = test system: MDA-MB-468 breast
HS 578T breast = test system: HS 578T breast
SR leukemia = test system: SR leukemia
A549 NSCLC = test system: A549 NSCLC
BT-549 breast = test system: BT-549 breast
NCI-H522 lung = test system: NCI-H522 lung
OVCAR-4 ovarian = test system: OVCAR-4 ovarian
TK-10 renal = test system: TK-10 renal
ACHN renal = test system: ACHN renal
EKVX NSCLC = test system: EKVX NSCLC
MALME-3M melanoma = test system: MALME-3M melanoma
SNB-19 CNS = test system: SNB-19 CNS
OVCAR-3 ovarian = test system: OVCAR-3 ovarian
M14 melanoma = test system: M14 melanoma
NCI-H322M lung = test system: NCI-H322M lung
UO-31 renal = test system: UO-31 renal
SF-539 CNS = test system: SF-539 CNS
SNB-75 CNS = test system: SNB-75 CNS
COLO 205 colon = test system: COLO 205 colon
SN12C renal = test system: SN12C renal
SW-620 colon = test system: SW-620 colon
NCI-H226 lung = test system: NCI-H226 lung
HOP-62 NSCLC = test system: HOP-62 NSCLC
SK-MEL-2 melanoma = test system: SK-MEL-2 melanoma
NCI-H23 lung = test system: NCI-H23 lung
UACC-62 melanoma = test system: UACC-62 melanoma
KM12 colon = test system: KM12 colon
RPMI-8226 leukemia = test system: RPMI-8226 leukemia
U251 glioblastoma = test system: U251 glioblastoma
CAKI-1 renal = test system: CAKI-1 renal
SK-OV-3 ovarian = test system: SK-OV-3 ovarian
MDA-MB-231 breast = test system: MDA-MB-231 breast
T-47D breast = test system: T-47D breast
NCI/ADR-RES ovarian = test system: NCI/ADR-RES ovarian
A498 renal = test system: A498 renal
HOP-92 NSCLC = test system: HOP-92 NSCLC
IGROV1 ovarian = test system: IGROV1 ovarian
NCI-H460 NSCLC = test system: NCI-H460 NSCLC
HCC-2998 colon = test system: HCC-2998 colon
HL-60(TB) leukemia = test system: HL-60(TB) leukemia
PC-3 prostate = test system: PC-3 prostate
CCRF-CEM leukemia = test system: CCRF-CEM leukemia
SF-295 CNS = test system: SF-295 CNS
SK-MEL-28 melanoma = test system: SK-MEL-28 melanoma
MCF7 breast = test system: MCF7 breast
SK-MEL-5 melanoma = test system: SK-MEL-5 melanoma
HT29 colon = test system: HT29 colon
HCT-15 colon = test system: HCT-15 colon
RXF 393 renal = test system: RXF 393 renal
MDA-MB-435 melanoma = test system: MDA-MB-435 melanoma
SF-268 CNS = test system: SF-268 CNS

NC1(Cc2ccc(Cl)cc2)CCN(c2ncnc3[nH]ccc23)CC1
GI50 (DU-145 prostate): 8.33 µM
TGI (DU-145 prostate): 23 µM
GI50 (K-562 leukemia): 3.4 µM
TGI (K-562 leukemia): 15.7 µM
GI50 (UACC-257 melanoma): 1.93 µM
TGI (UACC-257 melanoma): 3.96 µM
GI50 (OVCAR-5 ovarian): 6.84 µM
TGI (OVCAR-5 ovarian): 26.7 µM
GI50 (LOX IMVI melanoma): 4.07 µM
TGI (LOX IMVI melanoma): 13.7 µM
GI50 (MOLT-4 leukemia): 1.09 µM
TGI (MOLT-4 leukemia): 2.6 µM
GI50 ([…]-0 renal): 2.33 µM
TGI (786-0 renal): 12.1 µM
GI50 (HCT-116 colon): 3.67 µM
TGI (HCT-116 colon): 13.4 µM
GI50 (MDA-MB-468 breast): 1.61 µM
TGI (MDA-MB-468 breast): 6.55 µM
GI50 (HS 578T breast): 1.21 µM
TGI (HS 578T breast): 6.14 µM
GI50 (SR leukemia): 2.07 µM
TGI (SR leukemia): 4 µM
GI50 (A549 NSCLC): 4.27 µM
TGI (A549 NSCLC): 15.5 µM
GI50 (BT-549 breast): 1.63 µM
TGI (BT-549 breast): 5.8 µM
GI50 (NCI-H522 lung): 5.41 µM
TGI (NCI-H522 lung): 19.5 µM
GI50 (OVCAR-4 ovarian): 16.4 µM
TGI (OVCAR-4 ovarian): 43.9 µM
GI50 (TK-10 renal): 3.15 µM
TGI (TK-10 renal): 13.3 µM
GI50 (ACHN renal): 3.89 µM
TGI (ACHN renal): 15.8 µM
GI50 (EKVX NSCLC): 4.51 µM
TGI (EKVX NSCLC): 16.5 µM
GI50 (MALME-3M melanoma): 2.25 µM
TGI (MALME-3M melanoma): 5.8 µM
GI50 (SNB-19 CNS): 3.28 µM
TGI (SNB-19 CNS): 13.5 µM
GI50 (OVCAR-3 ovarian): 9.12 µM
TGI (OVCAR-3 ovarian): 21.4 µM
GI50 (M14 melanoma): 4.51 µM
TGI (M14 melanoma): 16.1 µM
GI50 (NCI-H322M lung): 4.85 µM
TGI (NCI-H322M lung): 17.6 µM
GI50 (UO-31 renal): 4.28 µM
TGI (UO-31 renal): 17.6 µM
GI50 (SF-539 CNS): 1.46 µM
TGI (SF-539 CNS): 7.16 µM
GI50 (SNB-75 CNS): 1.54 µM
TGI (SNB-75 CNS): 7.76 µM
GI50 (COLO 205 colon): 3.34 µM
TGI (COLO 205 colon): 12.3 µM
GI50 (SN12C renal): 3.46 µM
TGI (SN12C renal): 14.9 µM
GI50 (SW-620 colon): 4.6 µM
TGI (SW-620 colon): 16.2 µM
GI50 (NCI-H226 lung): 5.53 µM
TGI (NCI-H226 lung): 18.1 µM
GI50 (HOP-62 NSCLC): 4.77 µM
TGI (HOP-62 NSCLC): 17.2 µM
GI50 (SK-MEL-2 melanoma): 7.52 µM
TGI (SK-MEL-2 melanoma): 19 µM
GI50 (NCI-H23 lung): 4 µM
TGI (NCI-H23 lung): 16 µM
GI50 (UACC-62 melanoma): 4.76 µM
TGI (UACC-62 melanoma): 16.4 µM
GI50 (KM12 colon): 2.25 µM
TGI (KM12 colon): 11 µM
GI50 (RPMI-8226 leukemia): 1.36 µM
TGI (RPMI-8226 leukemia): 4.48 µM
GI50 (U251 glioblastoma): 4.4 µM
TGI (U251 glioblastoma): 15.7 µM
GI50 (CAKI-1 renal): 3.96 µM
TGI (CAKI-1 renal): 16 µM
GI50 (SK-OV-3 ovarian): 3.84 µM
TGI (SK-OV-3 ovarian): 17.3 µM
GI50 (MDA-MB-231 breast): 4.76 µM
TGI (MDA-MB-231 breast): 16.4 µM
GI50 (T-47D breast): 2.35 µM
TGI (T-47D breast): 12.7 µM
GI50 (NCI/ADR-RES ovarian): 8.66 µM
TGI (NCI/ADR-RES ovarian): 21.1 µM
GI50 (A498 renal): 3.16 µM
TGI (A498 renal): 14.8 µM
GI50 (HOP-92 NSCLC): 2.2 µM
TGI (HOP-92 NSCLC): 9.62 µM
GI50 (IGROV1 ovarian): 1.53 µM
TGI (IGROV1 ovarian): 9.67 µM
GI50 (NCI-H460 NSCLC): 1.76 µM
TGI (NCI-H460 NSCLC): 9.36 µM
GI50 (HCC-2998 colon): 1.96 µM
TGI (HCC-2998 colon): 5.94 µM
GI50 (HL-60(TB) leukemia): 3.01 µM
TGI (HL-60(TB) leukemia): 9.25 µM
GI50 (PC-3 prostate): 3.11 µM
TGI (PC-3 prostate): 15.8 µM
GI50 (CCRF-CEM leukemia): 2.31 µM
TGI (CCRF-CEM leukemia): 10.8 µM
GI50 (SF-295 CNS): 2.74 µM
TGI (SF-295 CNS): 14.8 µM
GI50 (SK-MEL-28 melanoma): 2.26 µM
TGI (SK-MEL-28 melanoma): 5.94 µM
GI50 (MCF7 breast): 2.55 µM
TGI (MCF7 breast): 12.7 µM
GI50 (SK-MEL-5 melanoma): 3.17 µM
TGI (SK-MEL-5 melanoma): 12.8 µM
GI50 (HT29 colon): 2.63 µM
TGI (HT29 colon): 12.3 µM
GI50 (HCT-15 colon): 3.93 µM
TGI (HCT-15 colon): 17.8 µM
GI50 (RXF 393 renal): 2.14 µM
TGI (RXF 393 renal): 7.4 µM
GI50 (MDA-MB-435 melanoma): 2.41 µM
TGI (MDA-MB-435 melanoma): 6.35 µM
GI50 (SF-268 CNS): 5.54 µM
TGI (SF-268 CNS): 18.2 µM
